PMC7764606 (Cancers, 2020)
Like-named read-outs stand apart in the source and are kept apart here.

Experiments:
recombinant AKR1C3 = target: T1, recombinant AKR1C3 (Homo sapiens, UniProt P42330); experiment: Reduction of Dau by recombinant AKR1C3 (UHPLC detection of Dau-ol); type: biochemical; conditions: for reduction of AKR1C3 activity (Dau reduction): Dau 500 µM, relative to DMSO; for Ki: read-out: Ki^app (Morrison equation for tight-binding inhibitors)
T1 construct: made in house; host or cells: Escherichia coli
T1 sequence (P42330 1-323): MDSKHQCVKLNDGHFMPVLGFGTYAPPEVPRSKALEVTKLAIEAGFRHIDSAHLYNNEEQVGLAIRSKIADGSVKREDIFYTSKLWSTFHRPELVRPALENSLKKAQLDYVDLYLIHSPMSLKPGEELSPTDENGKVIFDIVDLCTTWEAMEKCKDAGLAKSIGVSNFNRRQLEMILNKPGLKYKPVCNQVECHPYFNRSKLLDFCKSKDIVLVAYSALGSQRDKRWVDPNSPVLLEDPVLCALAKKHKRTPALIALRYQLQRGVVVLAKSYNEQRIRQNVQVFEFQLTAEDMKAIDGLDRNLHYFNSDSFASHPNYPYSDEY
Experimental: (§1) Human recombinant CREs (CBR1, AKR1A1, 1B1, 1B10, 7A2, and 1C3) were produced by an Escherichia coli expression system as per methods described previously. For the inhibitory assay, each recombinant enzyme, CBR1 (1 µg), AKR1A1 (1 µg), AKR1B1 (5 µg), AKR1B10 (5 µg), AKR7A2 (3 µg), or AKR1C3 (1.5 µg) was incubated with BTK inhibitors at different concentrations (10 and 50 µM) and the substrate Dau (500 µM). For analysis using the Lineweaver-Burk plot, 1.5 µg of recombinant AKR1C3 was incubated with DMSO or BTK inhibitors (1, 5, and 10 µM) and Dau (200, 400, 600, 800, 1000, and 2000 µM). […] The incubations and further metabolite detection were further performed by using ultra-high-performance liquid chromatography (UHPLC) as per methods described previously.

recombinant AKR1B10 = tested on: T2, recombinant AKR1B10; experiment: Reduction of Dau by recombinant AKR1B10 (UHPLC detection of Dau-ol); type: biochemical, Human; conditions: Dau 500 µM, relative to DMSO
T2 construct: made in house; host or cells: Escherichia coli
Experimental: as §1

[1] = tested on: T3, AKR1C3 in HCT116-C3 cells; experiment: Dau metabolism to Dau-ol in HCT116 cells transiently overexpressing AKR1C3; type: cell-based, human; conditions: 5 h
T3 construct: expressed in transfected cells; host or cells: HCT116
Experimental: (§2) HCT116 cells were seeded (1.25 × 10^5 cells/well) in 24-well plates and cultured for 24 h. For the transient expression of the recombinant human AKR1C3, the cells were transfected with a pCI_AKR1C3 or empty pCI plasmid as control (previously described in a study by Hofman et al.) according to the manufacturer’s instructions (jetPRIME® Transfection Reagent; Polyplus Transfection®, Illkirch, France). For each 24-well plate, a mixture of 0.75 µL of the jetPRIME® Transfection Reagent and 0.25 µg of plasmid was incubated for 10 min at room temperature. Then, polyplexes were added to the HCT116 cells with 0.5 mL of fresh DMEM supplemented with 10% FBS and incubated for 24 h (37 °C, 5% CO2). The expression of recombinant AKR1C3 was verified by western blotting as per methods described previously.
(§3) After transfection of HCT116 cells or seeding of A549 cells (25 × 10^3 cells/well) in 24-well plates for 24 h, the medium was harvested and replaced with DMEM supplemented with 10% FBS containing 1 µM daunorubicin, with or without increasing concentrations (1, 5, and 10 μM) of BTK inhibitors. Cells were incubated (37 °C, 5% CO2) for 2.5 and 5 h (transfected HCT116) or only 5 h (A549). Then, the medium was collected and the cells were lysed in lysis buffer (25 mM Tris, 150 mM NaCl, and 1% Triton X-100, pH 7.8) for 15 min at room temperature. The collected medium was combined with cell lysate for further extraction and analysis of metabolites, as per methods described previously.

A549 cells = experiment: Intracellular metabolism of Dau in A549 cells; type: cell-based, human; conditions: 5 h
Experimental: as §3

HCT116-C3 cells = experiment: MTT cell viability, HCT116-C3 cells (incl. Chou-Talalay analysis); type: cell-based, human
Experimental: as §2
The synergistic effect of BTK inhibitors on Dau cytotoxicity was evaluated in transfected HCT116 and A549 cells by IC50 determination. Twenty-four hours prior to the experiment, transfected HCT116 cells (8 × 10^3 cells/well) or A549 cells (5 × 10^3 cells/well) were seeded in 96-well plates. The cell culture medium was replaced with fresh medium containing increasing amounts of Dau (final concentrations: 0.01, 0.05, 0.1, 0.25, 0.5, 0.75, 1, and 10 µM) with or without BTK inhibitors (final concentrations: 1, 5, and 10 µM). After 72 h of incubation under standard conditions (37 °C, 5% CO2), cell viability was assessed by MTT (Sigma-Aldrich, Prague, Czech Republic) assay. For this, 50 µL of the MTT solution (3 mg/mL) was added to each well and incubated for 30 min. The supernatant was collected, and the cell monolayers were dissolved in 100 µL of DMSO. The absorbance was measured at 570 and 690 nm by a microplate reader Infinite M200 (Tecan, Salzburg, Austria), and the background values at 690 nm were subtracted from the absorbance obtained at 570 nm. The half-maximal inhibitory concentrations (IC50) were calculated using GraphPad Prism 8.1.2. The drug combination pharmacodynamics were determined by the Chou-Talalay method using the CompuSyn ver. 3.0.1 software (ComboSyn Inc., Paramus, NJ, USA).

[2] = recommended dose 200 mg/day, cited from earlier work
[3] = HCT116-C3, BTK-inhibitor 5 µM + Dau 0.25 µM
[4] = HCT116-C3, BTK-inhibitor 10 µM + Dau 0.25 µM

SMILES: CC#CC(=O)N1CCC[C@H]1c1nc(-c2ccc(C(=O)Nc3ccccn3)cc2)c2c(N)nccn12 [Acalabrutinib, acalabrutinib]
- reduction of AKR1C3 activity (Dau reduction) (recombinant AKR1C3; 10 µM BTK inhibitor): 89.55% ± 4%
- reduction of AKR1C3 activity (Dau reduction) (recombinant AKR1C3; 50 µM BTK inhibitor): 96.28% ± 1.58%
- Ki (recombinant AKR1C3; AKR1C3 0.005 mg/mL (0.135 μM)): 451 nM
- Ki (recombinant AKR1C3; AKR1C3 0.015 mg/mL (0.405 μM)): 521 nM
- Ki (recombinant AKR1C3; AKR1C3 0.030 mg/mL (0.811 μM)): 566 nM
- mode of inhibition (Lineweaver-Burk plot) (recombinant AKR1C3; recombinant AKR1C3 with increasing Dau): non-competitive/mixed
- inhibition of AKR1B10 activity (Dau reduction) (recombinant AKR1B10; 10 µM BTK inhibitor): did not show significant inhibition
- inhibition of AKR1B10 activity (Dau reduction) (recombinant AKR1B10; 50 µM BTK inhibitor): 9.36% ± 2.53%
- decrease in AKR1C3 activity (Dau to Dau-ol) ([1]; 1 µM BTK inhibitor + 1 µM Dau): 31.96% ± 13.51%
- decrease in AKR1C3 activity (Dau to Dau-ol) ([1]; 5 µM BTK inhibitor + 1 µM Dau): 67.15% ± 10.35%
- decrease in AKR1C3 activity (Dau to Dau-ol) ([1]; 10 µM BTK inhibitor + 1 µM Dau): 65.56% ± 1.53%
- reduction of intracellular metabolism of Dau (A549 cells; 1 µM BTK inhibitor + 1 µM Dau): 12.13% ± 5.19%
- reduction of intracellular metabolism of Dau (A549 cells; 5 µM BTK inhibitor + 1 µM Dau): 34.32% ± 7.09%
- reduction of intracellular metabolism of Dau (A549 cells; 10 µM BTK inhibitor + 1 µM Dau): 44.24% ± 9.06%
- Dose reduction index for Dau (HCT116-C3 cells; [3]): 1.38 ± 0.37
- Fraction affected (Fa %) (HCT116-C3 cells; [3]): 34.59 ± 5.75%
- Fraction affected (Fa %) (HCT116-C3 cells; HCT116-C3, BTK-inhibitor 5 µM + Dau 0.50 µM): 68.43 ± 1.41%
- Fraction affected (Fa %) (HCT116-C3 cells; HCT116-C3, BTK-inhibitor 5 µM + Dau 0.75 µM): 79.88 ± 0.40%
- Fraction affected (Fa %) (HCT116-C3 cells; HCT116-C3, BTK-inhibitor 5 µM + Dau 1.00 µM): 86.61 ± 1.29%
- Dose reduction index for Dau (HCT116-C3 cells; [4]): 1.77 ± 0.75
- Fraction affected (Fa %) (HCT116-C3 cells; [4]): 40.91 ± 11.4%
- Fraction affected (Fa %) (HCT116-C3 cells; HCT116-C3, BTK-inhibitor 10 µM + Dau 0.50 µM): 77.47 ± 0.69%
- Fraction affected (Fa %) (HCT116-C3 cells; HCT116-C3, BTK-inhibitor 10 µM + Dau 0.75 µM): 87.59 ± 1.02%
- Fraction affected (Fa %) (HCT116-C3 cells; HCT116-C3, BTK-inhibitor 10 µM + Dau 1.00 µM): 91.62 ± 0.29%
- IC50 (HCT116-C3 cells; Homo sapiens, HCT116-C3, 72 h MTT, read-out: IC50 of BTK inhibitor alone (cell viability)): 32200 nM
- relative resistance (RR) (HCT116-C3 cells; IC50 in HCT116-C3 divided by IC50 in HCT116-EV): 0.97
- approximate Cmax [2]: ~825 ng/mL
- Cmax ([2]; read-out: approximate Cmax): ~1800 nM
